Measurements from PMC10247784, “Physiological activation of human and mouse bitter taste receptors by bile acids” (Communications Biology, 2023).

Molecular target: T1, mouse Tas2r117 (Mus musculus, UniProt Q7M715)
T1 construct: expressed in transfected cells; host or cells: HEK293T-Gα16gust44
T1 sequence (Q7M715 1-330): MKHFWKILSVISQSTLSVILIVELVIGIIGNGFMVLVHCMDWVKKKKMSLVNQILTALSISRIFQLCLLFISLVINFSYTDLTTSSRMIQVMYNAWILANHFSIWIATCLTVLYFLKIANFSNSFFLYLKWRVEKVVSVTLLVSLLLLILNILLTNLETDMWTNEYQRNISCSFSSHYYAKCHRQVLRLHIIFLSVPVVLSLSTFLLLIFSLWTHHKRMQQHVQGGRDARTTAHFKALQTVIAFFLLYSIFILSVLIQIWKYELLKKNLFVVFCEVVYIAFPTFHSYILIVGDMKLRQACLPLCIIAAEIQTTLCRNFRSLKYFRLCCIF
Assay: Calcium imaging assay (FLIPR), HEK293T-Gα16gust44 cells transfected with mouse Tas2r117
Type: cell-based
Conditions: for Δ F/F: Tas2r117; for RLU: sheet Tas2r117, time trace
Method: This set of bile acids was chosen because of their commercial availability in high purities, their diversity within the class of bile acids and their previous detection and quantitation in human blood. Stock solutions were prepared in DMSO.
As basal growth medium for the HEK293T-Gα16gust44 cell line[17],[59] served Dulbecco’s modified eagle medium (DMEM) (Thermo Fisher Scientific, Darmstadt, Germany) supplemented with 10 % fetal bovine serum (Sigma-Aldrich, Steinheim, Germany), 2 mM L-glutamine (Sigma-Aldrich, Steinheim, Germany), 100 units/ml penicillin (Sigma Aldrich, Steinheim, Germany) and 100 µg/ml streptomycin (Sigma Aldrich, Steinheim, Germany). Growth conditions were 37 °C, 5 % CO2 and saturated air-humidity[60].
HEK293T-Gα16gust44 cells were seeded on poly-D-lysine (10 µg/ml) coated 96-well plates to reach a confluence of 40-60 % the next day. For transient transfection 150 ng of plasmid DNA containing the receptor of interest and 0.3 µl lipofectamine 2000 (Thermo Fisher Scientific, Darmstadt, Germany) per well were used and transfection took place according to the manual of lipofectamine 2000. […] The empty vector DNA (mock) was transfected as negative control[14],[41].
Cells were loaded using the calcium-sensitive fluorescent dye Fluo-4-AM (Abcam, Cambridge, Great Britain) in the presence of 2.5 mM probenecid (Sigma-Aldrich, Steinheim, Germany) the day after transfection[13],[41]. 1 h after loading, cells were washed with C1 buffer using a BioTek Cell Washer, incubated in the dark for half an hour and washed again. For automated agonist application and measurement of fluorescence changes, a FLIPR^TETRA device (Molecular Devices, San José, United States) was used. Viability of cells was tested by application of 100 nM Somatostatin 14 (Bachem, Bubendorf, Switzerland)[42].
Measured data were negative control corrected by subtracting the signal of the mock-transfected cells and exported to Microsoft Excel using the FLIPR software ScreenWorks 4.2. In Microsoft Excel software, standardization of maximum fluorescence intensities to the basal fluorescence and normalization to the buffer-only control was done to calculate the relative fluorescence changes (ΔF/F).
Initial screening experiments performed in duplicate wells were confirmed by at least one replication and representative traces were selected for display. All dose-response relationships were determined by three independent experiments (biological replicates) performed in duplicates (technical replicates). Threshold concentrations, defined as lowest substance concentrations leading to statistically significant elevated fluorescence changes in receptor-transfected cells compared with empty vector-transfected cells, were determined using SigmaPlot with Student’s t-test to evaluate statistical significance (p < 0.01).

C[C@H](CCC(=O)NCC(=O)O)[C@H]1CC[C@H]2[C@@H]3[C@H](O)C[C@@H]4C[C@H](O)CC[C@]4(C)[C@H]3C[C@H](O)[C@]12C [Glycocholic Acid, glycocholic acid]
Δ F/F (conc. 0,01 mM): 0.04745
Δ F/F (conc. 0,1 mM): 0.1208
Δ F/F (conc. 0,03 mM): 0.08527
Δ F/F (conc. 0,3 mM): 0.126
Δ F/F (conc. 0,0003 mM): 0.0009082
Δ F/F (conc. 0,001 mM): -0.007003
Δ F/F (conc. 0,003 mM): 0.01508
RLU (Time (s) 0): 0 RLU
RLU (Time (s) 2): -1.6624 RLU
RLU (Time (s) 4): 36.4597 RLU
RLU (Time (s) 6): 6 RLU
RLU (Time (s) 8): 8.49 RLU
RLU (Time (s) 12): -1.574 RLU
RLU (Time (s) 14): -17.8222 RLU
RLU (Time (s) 16): -9.405 RLU
RLU (Time (s) 18): -10.6465 RLU
RLU (Time (s) 18.797): -31.8582 RLU
RLU (Time (s) 20.797): -50.2175 RLU
RLU (Time (s) 22.797): -35.3697 RLU
RLU (Time (s) 24.797): -21.9519 RLU
RLU (Time (s) 26.797): 21.3834 RLU
RLU (Time (s) 28.797): 104.133 RLU
RLU (Time (s) 30.797): 136.733 RLU
RLU (Time (s) 32.797): 195.234 RLU
RLU (Time (s) 34.797): 290.459 RLU
RLU (Time (s) 36.797): 340.932 RLU
RLU (Time (s) 38.797): 397.791 RLU
RLU (Time (s) 40.797): 414.428 RLU
RLU (Time (s) 42.797): 437.759 RLU
RLU (Time (s) 44.797): 439.85 RLU
RLU (Time (s) 46.797): 450.862 RLU
RLU (Time (s) 48.797): 498.067 RLU
RLU (Time (s) 50.797): 490.971 RLU
RLU (Time (s) 52.797): 511.962 RLU
RLU (Time (s) 54.797): 520.574 RLU
RLU (Time (s) 56.797): 524.281 RLU
RLU (Time (s) 58.797): 554.582 RLU
RLU (Time (s) 60.797): 523.267 RLU
RLU (Time (s) 62.797): 554.128 RLU
RLU (Time (s) 64.797): 560.589 RLU
RLU (Time (s) 66.797): 586.355 RLU
RLU (Time (s) 68.797): 595.813 RLU
RLU (Time (s) 70.797): 569.01 RLU
RLU (Time (s) 72.797): 587.543 RLU
RLU (Time (s) 74.797): 600.561 RLU
RLU (Time (s) 76.797): 625.108 RLU
RLU (Time (s) 78.797): 601.569 RLU
RLU (Time (s) 80.797): 601.653 RLU
RLU (Time (s) 82.797): 613.098 RLU
RLU (Time (s) 84.797): 590.202 RLU
RLU (Time (s) 86.797): 586.509 RLU
RLU (Time (s) 88.797): 591.824 RLU
RLU (Time (s) 90.797): 608.043 RLU
RLU (Time (s) 92.797): 567.854 RLU
RLU (Time (s) 94.797): 592.934 RLU
RLU (Time (s) 96.797): 555.343 RLU
RLU (Time (s) 98.797): 591.525 RLU
RLU (Time (s) 100.797): 565.961 RLU
RLU (Time (s) 102.797): 558.057 RLU
RLU (Time (s) 104.797): 568.873 RLU
RLU (Time (s) 106.797): 600.41 RLU
RLU (Time (s) 108.797): 557.119 RLU
RLU (Time (s) 110.797): 566.614 RLU
RLU (Time (s) 112.797): 544.906 RLU
RLU (Time (s) 114.797): 533.624 RLU
RLU (Time (s) 116.797): 578.387 RLU
RLU (Time (s) 118.797): 540.575 RLU
RLU (Time (s) 120.797): 553.404 RLU
RLU (Time (s) 122.797): 531.136 RLU
RLU (Time (s) 124.797): 541 RLU
RLU (Time (s) 126.797): 530.303 RLU
RLU (Time (s) 128.797): 505.327 RLU
RLU (Time (s) 130.797): 508.223 RLU
RLU (Time (s) 132.797): 529.676 RLU
RLU (Time (s) 134.797): 490.998 RLU
RLU (Time (s) 136.797): 480.544 RLU
RLU (Time (s) 137.562): 494.151 RLU
RLU (Time (s) 143.578): 475.248 RLU
RLU (Time (s) 149.578): 448.977 RLU
RLU (Time (s) 155.578): 429.963 RLU
RLU (Time (s) 161.578): 410.536 RLU
RLU (Time (s) 167.578): 411.276 RLU
RLU (Time (s) 173.578): 378.737 RLU
RLU (Time (s) 179.578): 356.849 RLU
RLU (Time (s) 191.578): 338.845 RLU
RLU (Time (s) 197.578): 316.205 RLU
RLU (Time (s) 209.578): 296.441 RLU
RLU (Time (s) 221.578): 181.834 RLU
RLU (Time (s) 233.578): 175.03 RLU
RLU (Time (s) 239.578): 155.758 RLU
RLU (Time (s) 245.578): 143.461 RLU
RLU (Time (s) 293.578): 87.8538 RLU
RLU (Time (s) 299.578): 79.8727 RLU
RLU (Time (s) 305.578): 78.6198 RLU
RLU (Time (s) 311.578): 69.0671 RLU
RLU (Time (s) 317.578): 91.9062 RLU
RLU (Time (s) 323.578): 87.6118 RLU
RLU (Time (s) 329.578): 65.9416 RLU
RLU (Time (s) 335.578): 41.2589 RLU
RLU (Time (s) 341.578): 94.1086 RLU
RLU (Time (s) 347.578): 67.2353 RLU
RLU (Time (s) 353.578): 54.4225 RLU
RLU (Time (s) 359.578): 85.0918 RLU
EC50 (calculated where receptor saturation was reached, read-out: EC50 Tas2r117): 16 ± 2.5 µM
Activation threshold concentration Tas2r117 (p < 0.01 vs empty vector): 3 µM
